Key:
BEAS-2B cells = assay: Mammalian cytotoxicity assay, azoles and compound 2; assay type: cell-based, human
Text: (§1) David K. Orren (University of Kentucky, Lexington, Ky.) and Prof. David J. Feola (University of Kentucky, Lexington, Ky.), respectively.

HEK-293 cells = assay: as above; assay type: cell-based, human
Text: as §1

[1] = test system: C. glabrata ATCC 2001 (strain H); assay: MIC and checkerboard assay, azoles + antihistamines; assay type: cell-based, Candida glabrata
Procedure: Determination of minimum inhibitory concentration (MIC) values. MIC values were recorded for all antifungals and antihistamines in order to determine the concentration range of compounds to be used in the checkerboard assays.
The MIC assays were done using the broth microdilution method as described in CLSI document M27-A3 with minor modifications. Yeast cultures were started by picking a colony from a PDA plate stored at 4° C. The colonies were grown in YEPD medium overnight at 35° C. with shaking at 200 rpm. In a 96-well plate compounds were diluted lengthwise along the plate in serial 2-fold dilutions in the RPMI 1640 medium. The yeast cultures were diluted in RPMI 1640 medium to an OD600 within the range of 0.12 and 0.15 (˜1×10^6 cells/mL). The fungal cells were further diluted by taking 25 μL of fungal cells and adding them to 10 mL of RPMI 1640 medium before adding 100 μL to plate (200 μL total volume). The plates were incubated at 35° C. for 48 h. Visual inspection of the wells for no growth was used to determine the MIC. All compounds were tested in duplicate (TABLES 6 and 7).
Checkerboard assays were done as previously described to determine the fractional inhibitory concentration index (FICI). 2-fold dilutions of the azole drug were made in RPMI 1640 medium lengthwise along the plate. For the antihistamine, 2-fold serial dilutions were made in sterile tubes with RPMI 1640 medium, then aliquoted into the plate. […] The maximal amount was used in the checkerboard assays if complete inhibition was not observed in the MIC assays. Cultures were started by picking a colony from a plate and growing in YEPD medium overnight at 35° C. with shaking at 200 rpm. Cultures were diluted in RPMI 1640 medium to an OD600 between 0.12 and 0.15 (˜1×10^6 cells/mL). Cells were then further diluted by taking 25 μL of cell suspension and adding to 10 mL of RPMI 1640 medium. After the drugs were added to the plate with 100 μL of medium, 100 μL of fungal cells were added. Plates were incubated at 35° C. for 48 h and visual inspection was used to determine wells with no growth. All experiments were carried out in duplicate. The FICI was calculated based on the formula below. The combinational effect of the 2 tested compounds were considered synergistic (SYN) if FICI≤0.5, additive (ADD) if 0.5<FICI≤4, and antagonistic if FICI>4 (TABLES 6-9).

[2] = test system: C. albicans ATCC 10231 (strain B); assay: Time-kill assay, POS and EBA; assay type: cell-based, Candida albicans; conditions: drug alone (POS at concentration used in MICcombination; NYT, AMB at 1×MIC), inoculum 10^5
Procedure: (§2) The protocol for time-kill assays followed methods previously described with minor modifications. Yeast cultures were grown overnight in YEPD medium at 35° C. with shaking at 200 rpm. A working stock of fungal cells was made by diluting cultures in 1640 medium to an OD600 of 0.125 (˜1×10^6 CFU/mL). From the working stock, 100 μL of cells was added to 4.9 mL of RPMI 1640 medium in sterile culture tubes, making the starting fungal cell concentration ˜1×10^5 CFU/mL. Drug was then added to the fungal cells. […] Treated fungal cultures were incubated in the culture tubes at 35° C. with 200 rpm shaking for 24 h. Samples were aliquoted from the different treatments at regular time points (0, 3, 6, 9, 12, and 24 h) and plated in duplicate. For each time point, cultures were vortexed, 100 μL of culture was aspirated, and 10-fold serial dilutions were made in sterile ddH2O. From the appropriate dilutions, 100 μL of fungal suspension was spread on PDA plates and incubated at 35° C. for 48 h before colony counts were determined. At 24 h, 50 μL of 1 mM resazurin in phosphate buffered saline (PBS) was added to the treatments and incubated at 35° C. with 200 rpm shaking for 2 h in the dark for visual inspection. […] Experiments were performed in duplicate.

[3] = test system: C. glabrata ATCC 2001 (strain H); assay: Time-kill assay, POS and EBA; assay type: cell-based, Candida glabrata; conditions: drug alone (POS at concentration used in MICcombination; NYT, AMB at 1×MIC), inoculum 10^5
Procedure: as §2

[4] = test system: C. glabrata ATCC 2001 (strain H) biofilm; assay: Biofilm disruption assay (XTT, SMIC90), POS and EBA; assay type: cell-based, Candida glabrata
Procedure: Biofilm disruption assays. […] Biofilm assays were performed in 96-well plates using XTT [2,3-bis(2-methoxy-4-nitro-5-sulfophenyl)-2H-tetrazolium-5-carboxanilide] to measure the viability of the biofilm as previously described. An overnight culture of yeast was grown at 35° C. in YEPD medium with shaking at 200 rpm. The overnight culture was diluted in RPMI 1640 medium to an OD600 between 0.12 and 0.15 to make a working stock. Working stock was transferred to the 96-well plate in 100 μL aliquots, leaving one column empty for the sterile control. The plates were incubated at 37° C. for 24 h to allow formation of the biofilm. The medium and planktonic cells from the plate were then aspirated. PBS was then used to wash any remaining planktonic cells off of the biofilm wells. 100 μL of PBS was aliquoted into wells and then removed. The wells were washed 3 times with PBS. […] Plates were incubated at 37° C. for 24 h. Finally, the plates were washed 3 times with PBS before adding 100 μL of XTT dye. The XTT was prepared by dissolving XTT at 0.5 mg/mL concentration in sterile PBS. Before adding to a plate, 1 μL of 10 mM menadione in acetone was added to 10 mL of the 0.5 mg/mL solution of XTT. After addition of XTT (containing menadione), the plates were incubated at 3 h at 37° C. in the dark. 80 μL of liquid from each well was transferred to a new plate. Plates were then read with a SpectraMax M5 plate reader (Molecular Devices, Sunnyvale, Calif., USA) for absorbance at 450 nm. For these experiments, we determined the sessile MIC (SMIC90), which is defined as the drug concentration required to inhibit the metabolic activity of biofilm by 90% compared to the growth control. The SMIC90 values were used to calculate the FICI as described above (TABLE 10). The plates used to determine the SMIC90 are provided in FIGS. 91A-H. Each assay was performed in duplicate.

[5] = POS 16 μg/mL + 32 μg/mL compound 2

`CC[C@@H]([C@H](C)O)n1ncn(-c2ccc(N3CCN(c4ccc(OC[C@@H]5CO[C@@](Cn6cncn6)(c6ccc(F)cc6F)C5)cc4)CC3)cc2)c1=O` [POS, posaconazole] gave a cell survival (BEAS-2B cells; POS 8 μg/mL + 32 μg/mL compound 2) of 71±11%, a cell survival (BEAS-2B cells; [5]) of 38±6% and a cell survival (HEK-293 cells; POS 1 μg/mL + 32 μg/mL compound 2) of 80±8%. The cell survival (HEK-293 cells; [5]) was 40±6%, the cell survival (HEK-293 cells; drug alone at 16 μg/mL) was “around 45±12%” and the MIC ([1]; Nakaseomyces glabratus, ATCC2001, drug alone) was greater than 32 µg/mL. For the same compound, the MIC in combination ([1]; combination POS + EBA, MIC of the labelled drug) was 0.5 µg/mL, the “fold decrease in MIC (combination vs alone)” value ([1]; combination POS + EBA, decrease for the labelled drug) was 64 fold and the “CFU/mL at 24 h” value [2] was 10^8 CFU/mL. For the same compound, the “CFU/mL at 24 h” value [3] was 10^8 CFU/mL, the SMIC90 combo ([4]; combination POS + EBA, SMIC90 of the labelled drug) was 0.06 µg/mL and the SMIC90 ([4]; drug alone) was greater than 32 µg/mL.
